{"source": "paper PMC4226669", "about": "“Anti-cancer potency of tasquinimod is enhanced via albumin-binding facilitating increased uptake in the tumor microenvironment” (Oncotarget, 2014)", "type_in_all_cases": "in vivo, mouse", "key": {"[1]": {"test_system": "CWR-22RH human prostate cancer", "assay": "Tumor take of CWR-22RH xenografts in castrated nude mice", "conditions": "tasquinimod alone 10mg/kg/day via drinking water from inoculation", "procedure": "To confirm this conclusion, castrated male nude mice were xenografted with the castrate resistant CWR-22RH human prostate cancer tissue and the animals immediately randomized into groups (n=10) which were: 1) left untreated as controls; 2) given daily oral treatment with tasquinimod alone via the drinking water (10mg/kg/day); 3) given oral ketoconazole alone via oral gavage at a daily dose which inhibits cytochrome P450 3A4 (i.e., 25 mg/kg/day); or 4) given a combination of the two drugs. […] These combined in vitro/in vivo results document tasquinimod, not one of its metabolites, is the active drug.\nThe source, history, and characteristics of the human prostate cancer cell lines (i.e., LNCaP, LAPC4, and CWR-22Rv1 and the human umbilical vascular endothelial cells (HUVEC) used, as well as cell culture conditions for their in vitro maintenance and the in vivo protocol for their xenografting into immune-deficient nude male mice are as described previously. The source, history, and characteristics of the TRAMP-C2 mouse prostate cancer line, as well as cell culture conditions for their in vitro maintenance and the in vivo protocol for their growth in intact adult male syngeneic C57Bl/6J are as described previously. All lines were mycoplasma negative using the MycoSensor PCR Assay kit (Agilent Technologies) and genetically authenticated within the last 6 months using short tandem repeat profiling conducted by the Johns Hopkins Genetic Resource Core Facility. The source, history, and characteristics of the CWR-RH human prostate cancer xenograft are as described previously. In vitro growth curves were determined as described. Animal studies were conducted according to animal protocol MO09M434 approved by Johns Hopkins Animal Care and Use Committee. Daily drug dosing via oral gavage, the drinking water, or subcutaneous injection, as well as tumor volume measurements and determination of the blood vessel density within cancers, were as described previously. These experiments were repeated at 3 independent times for each xenograft."}, "[2]": {"assay": "Plasma pharmacokinetics after oral gavage in nude mice bearing CWR-22Rv1 xenografts", "conditions": "for half-life: po, 5 mg/kg", "procedure": "To determine the PK of tasquinimod, nude mice with growing (i.e., 200-400 mm^3) CWR-22Rv1 human prostate cancer xenografts were given ^14C-radiolabeled drug at a dose of 5 mg/kg via oral gavage and the plasma and tissue (i.e., liver, kidney, and tumor) drug concentration determined. Maximum tasquinimod plasma concentration is reached within 1 hour after oral gavage of mice, Figure 1C. After this absorption phase, the plasma concentration declines bi-exponentially as the sum of two first-order processes involving tissue distribution, with the plasma concentration remaining above 1 μM for at least 24 hours, Figure 1D. These PK results support a two-compartment model composed of a central and peripheral compartment. In the absorption phase, the apparent volume of distribution is low (i.e., 0.31 L/kg) but is still more than 3 times the total volume of the blood (i.e., 0.1 L/kg) and is equal to the extracellular body fluid (i.e. 0.2 L/kg) plus the total volume of blood in a mouse (i.e., […]).\nMale nude mice bearing 200-300mm^3 CWR-22Rv1 cancers were given ^14C-labeled tasquinimod at a dose of 5 mg/kg via oral gavage. At times ranging from 30 min to 24 hour, groups of 4-6 mice were anaesthetized with ketamine and 1 ml of heparinized blood collected by cardiac puncture, followed by subsequent cardiac perfusion of saline to remove blood associated drug. An aliquot of liver, kidney, and cancer was removed, weighed and then homogenized. The radioactivity in 10 μL aliquots of tissue homogenates and blood plasma was determined using a liquid scintillation counter and used to calculate the total amount of tasquinimod plus its metabolites per gram of tissue or per ml of blood. The remaining sample volume was deproteinated with acetonitrile and the radioactivity of an aliquot of the supernatant determined and the remaining supernatant lyophilized, resuspended initially with 0.1mL dimethyl sulfoxide and diluted by the addition of 0.9mL deionized water prior to injection into the HPLC. The HPLC system consisted of Waters pumps using a Waters gradient controller to deliver mobile phase at a flow rate of 1mL per minute using a Supelcosil ABZ+ C18 column that is 150mm long by 4.6mm diameter and has 5μm particle size. The metabolites were separated using a linear gradient in which the starting mobile phase was 35% acetonitrile: 65% water: 0.1% Trifluoroacetic acid (TFA) increasing to 50% acetonitrile: 50% water: 0.1%TFA over 25 minutes, and then increased rapidly to 98% acetonitrile: 2% water: 0.1%TFA and held until 33 minutes before it is returned to the initial conditions for the next run. Fractions were collected and the radioactivity determined by scintillation counting. As controls, the individual elution time of non-radiolabeled standard solutions of the various tasquinimod metabolites was determined using UV absorption at 215nm. The results were expressed as concentration based upon tissue volume, assuming 1gram wet weight equals 1ml, or normalized to tissue vascular volume."}, "[3]": {"test_system": "CWR-22Rv1 prostate cancers", "assay": "Vascular volume, albumin-Evans Blue accumulation (EPR effect) and growth in CWR-22Rv1 bearing mice treated with tasquinimod", "procedure": "To evaluate the potential importance of an EPR effect for enhancing tumor specific tasquinimod uptake and thus anti-cancer potency, albumin retention in plasma and normal tissue vs. prostate cancer was determined. To do this, nude mice bearing CWR-22Rv1 prostate cancers were injected intravenously (IV) with Evans Blue (EB) at a dose (10mg/kg) so that all of the dye is initially bound to albumin within the blood. Twenty-four hours later, the amount of albumin-EB complex retained in plasma vs. accumulated in liver, kidney, or CWR-22Rv1 prostate cancers determined. The results are expressed as concentration of extractable albumin-EB in plasma vs. the specified tissue. These studies document that prostate cancers accumulate a concentration of albumin-EB that is equal to that in the plasma by 24 hours, Figure 3C. When normalized to vascular volume, the albumin-EB accumulation by prostate cancers is more than two fold greater (p<0.05) compared to liver and more than 8 fold greater (p<0.05) compared to kidney, Figure 3C. […] Such continuous treatment with tasquinimod decreased the vascular volume within the cancers by nearly half (p<0.05), Figure 3C. […]\nTissue vascular volumes for liver, kidney, and CWR-22Rv1 cancers were determined previously via intravenous infusion of^51 Chromium (Perkin Elmer, Shelton, CT) labeled red blood cells and the result expressed as percent vascular volume as described previously.\nEPR effect was determined using Evans Blue as described previously with the modification that 24 hours after the albumin in the blood of tumor bearing nude mice was labeled via IV injection of Evans Blue (EB) at a dose of 10mg/kg, the animals were anesthetized, blood collected, and then animals were perfused with saline to remove blood from the host tissues before harvesting liver, kidney, and prostate cancer xenograft tissue. The results are expressed as the concentration of EB-labeled albumin retained in the blood or specified tissue."}}, "note": "Read-outs that look alike come from different tables or passages of the source.", "data": [{"compound": "COc1cccc2c1c(O)c(C(=O)N(C)c1ccc(C(F)(F)F)cc1)c(=O)n2C", "note": "[Tasquinimod]", "values": [{"measurement": "tumor take and subsequent malignant growth", "setting": "[1]", "result": "prevents tumor take"}, {"measurement": "Cmax for protein free-tasquinimod", "setting": "[2]; 5 mg/kg oral", "result": "~ 0.24 μM"}, {"measurement": "time plasma concentration remains above 1 μM", "setting": "[2]; 5 mg/kg oral gavage, nude mice", "result": "at least 24 hours"}, {"measurement": "increase in plasma elimination half-life on ketoconazole co-treatment", "setting": "[2]; 5 mg/kg oral tasquinimod with ketoconazole 25mg/kg/day oral", "result": "more than 8 fold"}, {"measurement": "apparent volume of distribution", "setting": "[2]; absorption phase, 5 mg/kg oral", "result": 0.31, "unit": "L/kg"}, {"measurement": "fraction of blood drug located in the plasma and not in blood cells", "setting": "[2]; fractionated whole blood, 4hours post oral dosing", "result": "> 98", "unit": "%"}, {"measurement": "Tmax", "setting": "[2]; male, mouse, plasma, 5 mg/kg oral gavage, nude mice, read-out: time to maximum plasma concentration", "result": "≤ 1", "unit": "h"}, {"measurement": "half-life", "setting": "[2]; male, nude, mouse, plasma, 5 mg/kg oral, read-out: half-life of α-distribution phase (converted)", "result": 3.2, "unit": "h"}, {"measurement": "half-life", "setting": "[2]; male, nude, mouse, plasma, 5 mg/kg oral, read-out: β-elimination phase half-life", "result": "> 10", "unit": "h"}, {"measurement": "Cmax", "setting": "[2]; male, nude, mouse, plasma, 5 mg/kg oral, read-out: total plasma Cmax", "result": "~12", "unit": "µM"}, {"measurement": "Percent Vascular Volume (Prostate Cancer)", "setting": "[3]; 10mg/kg/day for 30 days", "result": "1.4±0.4"}, {"measurement": "decrease of vascular volume within the cancers", "setting": "[3]; 10 mg/kg/day for a month", "result": "nearly half"}, {"measurement": "inhibition in cancer growth", "setting": "[3]; CWR-22Rv1, 10 mg/kg/day for a month", "result": "greater than 80%"}]}]}
